Measured values: ChEMBL document CHEMBL1140688, “Sulfenamides as prodrugs of NH-acidic compounds: a new prodrug option for the amide bond” (Bioorg Med Chem Lett, 2007)

Experiments:
Assay type in all cases: physicochemical
Conditions in all cases: buffer
[1] = Chemical stability assessed as half life at pH 7.0
[2] = Chemical stability assessed as half life at pH 6.5
[3] = Chemical stability assessed as half life at pH 6.0

half-life [1]: 50.4 h | half-life [2]: 81.6 h | half-life [3]: 214 h
SMILES: CCOC(=O)[C@@H](N)CSNC(=O)N1c2ccccc2C=Cc2ccccc21
